Source: patent publication US20020151563A1, “Farnesyl transferase inhibitors in combination with HMG CoA reductase inhibitors for the inhibition of abnormal cell growth” (Pfizer Inc., priority 2001, published 2002)

Test system: NIH-3T3 tranfectant overexpressing mutant K-ras 4B
Assay: Prenylation of K-ras 4B in intact cells (anti-Pan-ras immunoblot, densitometric scanning)
Type: cell-based
Conditions: 72 hours at 37° C.; 0, 1.0, 5.0, 10.0 and 25 μm FTase inhibitor in the presence versus absence of 5,M of hydrolysed lovastatin
Description: The effectiveness of the FTase inhibitor 6-[(4-chloro-phenyl)-hydroxy-(3-methyl-3H-imidazol4-yl)-methyl]-4-(3-ethynyl-phenyl)-1-methyl-1H-quinolin-2-one on prenylation of K-ras 4B in intact cells is enhanced by a minimally effective dose of lovastatin. Semi-confluent monolayers of the NIH-3T3 tranfectant overexpressing mutant K-ras 4B are treated for 72 hours at 37° C. with increasing concentrations (0, 1.0 μm, 5.0 μm 10.0 μm and 25 μm) of 6-[(4-chloro-phenyl)-hydroxy-(3-methyl-3H-imidazol4-yl)-methyl]4-(3-ethynyl-phenyl)-1-methyl-1H-quinolin-2-one in the presence and absence of 5,M of hydrolysed lovastatin. […] The blots are incubated with peroxidase-conjugated secondary antibody, and the immunoblotted Ras protein are detected by enhanced chemiluminescence (Amersham Life Products, Arlington Heights, Ill.). Percent of prenylated Ras is determined by densitometric scanning using MasterScan 3.0 (Scanalytics, Billerica, Mass.). […]

C#Cc1cccc(-c2cc(=O)n(C)c3ccc(C(O)(c4ccc(Cl)cc4)c4cncn4C)cc23)c1 (stereo not shown) [6-[(4-chloro-phenyl)-hydroxy-(3-methyl-3H-imidazol4-yl)-methyl]-4-(3-ethynyl-phenyl)-1-methyl-1H-quinolin-2-one]
effectiveness on the inhibition of prenylation of K-ras 4B in intact cells (percent of prenylated Ras): enhanced
